Assay results published in ChEMBL document CHEMBL1201862, “PubChem BioAssay data set” (2004).
Calls of active or inactive are those of the source. Rule as the data show it, for most assays here: actives have a measured EC50 and inactives only a lower limit.

Experiments:
[1] = biological target: T1, Zinc finger protein mex-5 (Caenorhabditis elegans, UniProt Q9XUB2); test: MEX-5/TCR-2 RNA interaction inhibitors, dose response, biochemical, C. elegans, fluorescence polarization (AID 1960)
T1 sequence (Q9XUB2 whole entry): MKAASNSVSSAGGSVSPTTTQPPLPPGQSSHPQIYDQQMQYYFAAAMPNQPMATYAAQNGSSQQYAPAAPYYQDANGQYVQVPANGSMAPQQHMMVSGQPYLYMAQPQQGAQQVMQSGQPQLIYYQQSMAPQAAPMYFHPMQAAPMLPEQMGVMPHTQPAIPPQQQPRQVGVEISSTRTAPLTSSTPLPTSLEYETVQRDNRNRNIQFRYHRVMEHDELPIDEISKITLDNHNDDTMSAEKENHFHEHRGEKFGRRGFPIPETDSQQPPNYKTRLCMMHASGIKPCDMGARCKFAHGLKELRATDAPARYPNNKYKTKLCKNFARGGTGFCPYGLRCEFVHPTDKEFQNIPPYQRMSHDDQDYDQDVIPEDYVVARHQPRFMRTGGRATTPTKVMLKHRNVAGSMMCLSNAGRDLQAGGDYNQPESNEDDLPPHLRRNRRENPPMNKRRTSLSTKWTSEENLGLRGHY

[2] = biological target: T2, RNA-binding protein pos-1 (Caenorhabditis elegans, UniProt G5EF15); test: inhibitors of POS-1/mex-3 RNA binding, dose response, biochemical, fluorescence polarization (AID 1964);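 also: purified POS-1 fused to maltose binding protein made in E. coli; potency of compounds blocking POS-1 binding to fluorescent RNA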
T2 sequence (G5EF15 whole entry): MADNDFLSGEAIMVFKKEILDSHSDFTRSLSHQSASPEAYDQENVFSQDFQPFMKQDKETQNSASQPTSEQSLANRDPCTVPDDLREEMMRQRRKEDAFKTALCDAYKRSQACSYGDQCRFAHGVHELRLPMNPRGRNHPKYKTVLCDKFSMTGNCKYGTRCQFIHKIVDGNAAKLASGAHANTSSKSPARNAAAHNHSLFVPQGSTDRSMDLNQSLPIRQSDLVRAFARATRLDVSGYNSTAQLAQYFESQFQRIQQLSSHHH

[3] = biological target: T3, Rac GTPase-activating protein 1 (Homo sapiens, UniProt Q9H0H5); test: MgcRacGAP GTPase-activating activity inhibitors, confirmation, biochemical, ADP Hunter fluorescence, primary and confirmatory (AID 624330); type: functional
T3 sequence (Q9H0H5 whole entry): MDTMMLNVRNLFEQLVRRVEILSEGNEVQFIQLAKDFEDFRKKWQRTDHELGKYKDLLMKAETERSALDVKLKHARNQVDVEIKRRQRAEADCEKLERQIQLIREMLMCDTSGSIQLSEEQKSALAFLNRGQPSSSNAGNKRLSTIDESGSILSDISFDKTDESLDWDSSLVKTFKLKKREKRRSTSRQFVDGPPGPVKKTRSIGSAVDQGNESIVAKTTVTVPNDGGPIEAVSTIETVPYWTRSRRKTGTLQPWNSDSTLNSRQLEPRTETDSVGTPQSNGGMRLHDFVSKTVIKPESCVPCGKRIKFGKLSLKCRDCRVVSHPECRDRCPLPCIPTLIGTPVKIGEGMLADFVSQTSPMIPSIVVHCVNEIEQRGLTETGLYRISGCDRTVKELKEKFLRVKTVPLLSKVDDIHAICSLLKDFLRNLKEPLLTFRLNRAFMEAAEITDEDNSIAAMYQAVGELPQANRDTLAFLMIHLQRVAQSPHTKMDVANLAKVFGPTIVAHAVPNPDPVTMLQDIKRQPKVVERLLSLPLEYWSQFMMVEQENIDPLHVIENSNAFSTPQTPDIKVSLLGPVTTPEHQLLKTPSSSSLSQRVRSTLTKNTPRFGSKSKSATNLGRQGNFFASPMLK

[4] = biological target: T4, Corticotropin-releasing factor receptor 2/Corticotropin-releasing factor-binding protein (Homo sapiens, UniProt P24387+Q13324); test: activators of CRF receptor 2 with binding protein – uHTS hits, confirmation (AID 602473); type: functional; conditions: read-out: EC50_Mean
T4 sequence (Q13324 whole entry): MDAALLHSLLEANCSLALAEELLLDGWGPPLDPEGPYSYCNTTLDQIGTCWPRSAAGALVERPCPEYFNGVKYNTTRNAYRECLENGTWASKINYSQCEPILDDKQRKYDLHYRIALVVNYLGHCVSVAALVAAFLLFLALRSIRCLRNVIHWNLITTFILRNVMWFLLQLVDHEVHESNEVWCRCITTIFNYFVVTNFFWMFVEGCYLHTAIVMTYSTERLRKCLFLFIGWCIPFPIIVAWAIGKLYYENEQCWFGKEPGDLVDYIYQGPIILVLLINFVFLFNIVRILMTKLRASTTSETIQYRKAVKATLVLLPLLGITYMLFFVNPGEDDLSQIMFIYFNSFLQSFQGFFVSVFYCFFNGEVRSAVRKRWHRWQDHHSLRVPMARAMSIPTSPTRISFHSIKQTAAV
T4 sequence (P24387 whole entry): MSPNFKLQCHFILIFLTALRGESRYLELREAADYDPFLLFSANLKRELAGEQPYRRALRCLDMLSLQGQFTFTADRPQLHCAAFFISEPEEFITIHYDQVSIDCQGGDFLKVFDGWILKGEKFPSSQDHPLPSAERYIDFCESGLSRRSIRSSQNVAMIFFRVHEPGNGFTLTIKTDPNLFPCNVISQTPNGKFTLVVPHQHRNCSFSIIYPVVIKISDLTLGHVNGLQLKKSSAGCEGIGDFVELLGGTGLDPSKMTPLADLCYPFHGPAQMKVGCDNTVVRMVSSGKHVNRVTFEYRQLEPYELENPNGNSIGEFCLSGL

[5] = biological target: T4, Corticotropin-releasing factor receptor 2/Corticotropin-releasing factor-binding protein; test: Dose Response confirmation of uHTS hits for small molecule antagonists of the CRF-binding protein and CRF-R2 receptor complex.; type: functional; conditions: read-out: IC50_Mean
cells [6] = type: functional, cell-based
cells [7] = type: functional, cell-based; remark: listed apart in the source
[8] = biological target: T5, Heat shock factor protein 1 (Mus musculus, UniProt P38532); test: inhibition of MG132-induced HSE-luciferase signal, confirmation, cell-based, NIH3T3, luminescence, dose retest (AID 2382); type: functional;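 also: NIH3T3 fibroblasts with HSF1-driven luciferase reporter stressed by proteasome inhibitor MG132; luminescence from HSF1-driven luciferase expression after 8 hours of MG132 stress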
T5 sequence (P38532 whole entry): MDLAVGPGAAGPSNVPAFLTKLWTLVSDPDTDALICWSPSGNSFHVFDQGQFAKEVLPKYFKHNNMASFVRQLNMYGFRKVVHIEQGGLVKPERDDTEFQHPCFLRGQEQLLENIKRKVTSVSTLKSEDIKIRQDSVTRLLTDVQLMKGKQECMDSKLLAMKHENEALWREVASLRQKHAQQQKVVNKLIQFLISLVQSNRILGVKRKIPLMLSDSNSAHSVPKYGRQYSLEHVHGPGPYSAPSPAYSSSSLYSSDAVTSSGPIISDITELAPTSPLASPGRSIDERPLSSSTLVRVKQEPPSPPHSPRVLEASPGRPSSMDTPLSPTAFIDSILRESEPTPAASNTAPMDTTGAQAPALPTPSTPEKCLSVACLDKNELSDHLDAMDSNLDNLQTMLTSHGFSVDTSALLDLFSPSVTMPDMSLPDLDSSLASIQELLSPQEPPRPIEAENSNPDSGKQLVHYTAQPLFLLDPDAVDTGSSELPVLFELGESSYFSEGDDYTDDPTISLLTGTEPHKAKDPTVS

For `O=C(O)C(=O)/C(=C\c1ccc(Cl)cc1)c1ccc2ccccc2n1`, the EC50 [1] was > 300 µM (not active) and the EC50 [2] was > 300 µM (not active).

In the case of `COc1cccc(CNc2ccc3c(c2)ncn3C)c1OC`, the IC50 [3] was 99.4 µM (active).

For `CC(=O)N1CCc2c(sc(NC(=O)C3CCCCC3)c2C(N)=O)C1`, the EC50 [1] was 30.1 µM (active) and the EC50 [2] was 33.4 µM (active).

For `COc1ccc(-c2cccc(NS(=O)(=O)c3cccc([N+](=O)[O-])c3)c2)nn1`, the EC50 [4] was > 53 µM (inactive) and the IC50 [5] was > 47.1 µM (inactive).

For `COc1ccc(N(CC(=O)Nc2cc(OC)ccc2OC)S(=O)(=O)c2c(C)noc2C)cc1`, the EC50 (cells [6]) was > 350 µM (not active) and the EC50 (cells [7]) was > 350 µM (not active).

For `O=C(NN1C(=O)c2ccccc2NC1c1ccccn1)c1ccc([N+](=O)[O-])cc1` (centres undefined), the EC50 [1] was 8.55 µM (active) and the EC50 [2] was 198 µM (active).

In the case of `Cc1nnc(-c2ccccc2)nc1N(C)C`, the EC50 (cells [6]) was > 350 µM (not active) and the EC50 (cells [7]) was > 350 µM (not active).

With `COC(=O)c1ccccc1-n1cccc1C(=O)NP(=O)(N1CCOCC1)N1CCOCC1` the EC50 [1] was > 300 µM (not active) and the EC50 [2] was > 300 µM (not active).

In the case of `N=c1c(C(=O)NC2CCCC2)cc2c(=O)n3ccccc3nc2n1Cc1ccccc1`, the EC50 [1] was 41.3 µM (active), the EC50 [8] was > 195 µM (not active) and the EC50 [2] was 31.6 µM (active).

For `CN(c1ccc(O)cc1)c1nc(-c2cccs2)cs1`, the IC50 [3] was 70.4 µM (active).

For `O=C(O)C1=C[C@@H](c2ccc(Br)cc2)C[C@@H](OCc2ccc(CO)cc2)O1`, the EC50 [4] was > 53 µM (inactive) and the IC50 [5] was > 47.1 µM (inactive).

For `Cn1c(CCNC(=O)c2ccco2)nc2cc(NC(=O)c3ccco3)ccc21`, the EC50 [4] was > 53 µM (inactive) and the IC50 [5] was > 47.1 µM (inactive).

In the case of `Cc1ccccc1NC(=O)c1ccccc1O`, the EC50 (cells [6]) was 50.3 µM (active) and the EC50 (cells [7]) was > 350 µM (not active).

For `CC1(C)CC2CC(C)(CN2/C=C2/CCCCC2=O)C1` (centres undefined), the EC50 [4] was > 53 µM (inactive) and the IC50 [5] was > 47.1 µM (inactive).

For `CN1CCCN(Cc2ccccc2C(F)(F)F)CC1`, the IC50 [3] was 83.3 µM (active).

For `Oc1ccc(C2=CSC3=NCCN23)cc1O`, the EC50 [1] was 18.6 µM (active) and the EC50 [2] was 70.6 µM (active).

In the case of `Cc1cccc(C(=O)OC(C)CN2CCCC2)c1` (centres undefined), the EC50 (cells [6]) was > 350 µM (not active) and the EC50 (cells [7]) was > 350 µM (not active).

For `CCc1ccccc1N=C(S)NCC1CCN(c2ccc(OC)cc2)C1` (centres undefined), the IC50 [3] was 43.3 µM (active).

With `Cn1cc(S(=O)(=O)Nc2ccc(Br)cc2F)c(=O)n(C)c1=O` the EC50 [4] was > 53 µM (inactive) and the IC50 [5] was > 47.1 µM (inactive).

In the case of `COc1cc(/C=C/C(=O)OCC(=O)N2CC3(C)CC2CC(C)(C)C3)ccc1O` (centres undefined), the IC50 [3] was 49.6 µM (active).

For `COc1ccc(-n2c(NNC(C)=O)nc3sc4c(c3c2=O)CCCC4)cc1`, the EC50 [1] was > 300 µM (not active) and the EC50 [2] was > 300 µM (not active).

For `CCCn1cc2c3c(cccc31)C1CC(C)CN(C)C1C2` (centres undefined), the EC50 [1] was 29.6 µM (active) and the EC50 [2] was 36 µM (active).

In the case of `CCOc1ccc(CN2CCN(S(=O)(=O)c3ccc(NC(C)=O)cc3)CC2)cc1`, the IC50 [3] was 221 µM (active).

In the case of `COC(=O)C12CCc3c(ccc4cc(OC)ccc34)C1=CC(=O)C2` (centres undefined), the EC50 [4] was > 53 µM (inactive) and the IC50 [5] was > 47.1 µM (inactive).

For `COc1ccc(C2CC(c3ccc(Br)cc3)=NN2C(=O)CCC(=O)O)cc1OC` (centres undefined), the EC50 [4] was > 53 µM (inactive) and the IC50 [5] was > 47.1 µM (inactive).

With `O=C(O)CCC(=O)Nc1ccc(Br)c(Cl)c1` the EC50 [4] was > 53 µM (inactive) and the IC50 [5] was < 0.368 µM (active).

In the case of `Cc1cc(C)nc(NNC2=CC(=O)CC(C)(C)C2)n1`, the EC50 [1] was 10.9 µM (active) and the EC50 [2] was 84.6 µM (active).

With `CCOc1cc(/C=N/NC(=O)NN(C)c2ncc(C(F)(F)F)cc2Cl)ccc1O` the IC50 [3] was 88.4 µM (active).

In the case of `Cc1ccccc1-c1nc2ccccc2c(=O)n1/N=C/c1ccccc1[N+](=O)[O-]`, the EC50 (cells [6]) was > 350 µM (not active) and the EC50 (cells [7]) was > 350 µM (not active).

In the case of `CCN(CC)CCNC1=CC(=O)OC12CCCCC2`, the EC50 (cells [6]) was > 350 µM (not active) and the EC50 (cells [7]) was > 350 µM (not active).
